Experimental findings from patent US9636368B2, “Strain of Lactobacillus rhamnosus and its metabolites for use in inhibiting xanthine oxidase and treating gout” (Food Industry Research and Development Institute, priority 2014, dated 2017) are described below.

This assay concerns uric acid in the serum of the mice. Description: Treatment of experimental uricemia: potassium oxonate-induced high serum uric acid in ICR mice. The following applies: potassium oxonate (400 mg/kg) + allopurinol 10 mg/kg, fed via feeding tube, sacrificed after one hour, oxonate alone 4.91 ± 0.08, saline control 3.51 ± 0.02. It counts as in vivo. The method, then:
Lactobacillus rhamnosus I21 was inoculated on an MRS plate and cultured at 37° C. for 3 days. Bacteria were scraped from the plate using a 1 μl sterile inoculation loop, inoculated into MRS broth, and grown at 37° C. for 1 day to prepare an inoculum. The inoculum (30 ml) was then added into 3 L MRS broth in a 5 L fermenter and grown at 37° C. for 2 days. The fermentation broth was centrifuged at 3000 rpm for 15 min. The supernatant was collected and lyophilized to produce the Lactobacillus rhamnosus I21 fermentation product.
ICR mice were used as experimental animals. Potassium oxonate, a uricase inhibitor, was used to induce a high level of uric acid in the serum of the mice. Mice were fasted for one hour and then fed saline or potassium oxonate (400 mg/kg) via a feeding tube. After one hour, potassium oxonate-treated mice were fed saline, allopurinol (10 mg/kg), or a Lactobacillus rhamnosus I21 fermentation product (150 mg or 200 mg resuspended in saline per mouse) prepared as described above. Ten animals were used for each experimental group and for the control group. The animals were sacrificed after one hour and the level of uric acid in their serum was analyzed.

`Oc1ncnc2[nH]ncc12` [allopurinol]: the “serum uric acid concentration” value worked out at 2.82 ± 0.28 mg/dL.
